Laboratory results taken from ChEMBL document CHEMBL5604062, “ASAP - ZIKV NS2B-NS3 protease fluorescence dose response” (2024).
“And” between values parts separate entries of the source, which are not always exact repeats. Equal entries are not always repeated.

The compounds below were run against Nonstructural protein 3 (Zika virus, UniProt A0A024AXB9) (assay: Functional biochemical assay to identify treatments for viral infectious disease that targets Zika NS2B-NS3 protease. Utilizing a direct enzyme activity measurement method, reading the fluorescence intensity is used to characterize the relative potency of inhibitors as IC50.).
Parameters: species or system PRVABC59

Sequence of Nonstructural protein 3 (A0A024AXB9 whole entry): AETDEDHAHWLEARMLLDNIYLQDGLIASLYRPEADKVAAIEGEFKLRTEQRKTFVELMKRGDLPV

SMILES | IC50
CN1C(=O)C[C@H](C(=O)Nc2cccc(CN)c2)[C@H]1c1ccc(Cl)c(Cl)c1 | > 99.5 µM
NCc1cccc(NC(=O)C[C@H](NC(=O)OCc2ccccc2)c2ccc(Cl)c(F)c2)c1 | 71.4 µM
Cn1nccc1-c1ccc([C@@H](NC(=O)OCc2ccccc2)C(=O)Nc2cccc(CN)c2)cc1 | > 99.5 µM
N#C[C@H](c1cc(Cl)cc(C2CC2)c1)N1c2cnccc2C[C@H]1C(=O)O | > 99.5 µM
C[C@H](NC(=O)c1cc(Cl)cc(NC(=O)OCc2ccccc2)c1)C(=O)O | > 99.5 µM
Cc1c(C(=O)Nc2cc(CCCN)ccn2)cc(C2CCCCC2)n1C | > 99.5 µM
CC(C)CO[C@]1(C)C(=O)Nc2cc(F)cc(C(=O)Nc3ccc4c(c3)CNC4)c21 | 2.48 µM
NCCCc1ccc(C(=O)N2CC(c3cccc(Br)c3)C2)cc1 | > 99.5 µM
O=C(Nc1cc(Cl)cc(C(=O)NC[C@H]2CCNC3(CC3)C2)c1)OCc1ccccc1 | > 99.5 µM
O=C(Nc1cc(Cl)cc(C(=O)Nc2ccc3c(c2)CNC3)c1)OCc1ccccc1 | < 2.49 µM and 0.175 µM and 0.19 µM
Cc1nccn1CCOc1cccc([C@H](NC(=O)OCc2ccccc2)C(=O)Nc2cccc(CN)c2)c1 | > 99.5 µM
NCc1ccccc1Oc1ccc(S(=O)(=O)Nc2ccc(Cl)cc2C(=O)NCC(F)(F)F)cc1 | > 99.5 µM
O=C(Nc1cc(Cl)cc(C(=O)NCc2ccc(-c3nnn[nH]3)cc2)c1)OCc1ccccc1 | 68.3 µM
NCc1cccc(NC(=O)[C@H](NC(=O)OCc2ccccc2)C2CCC(c3ccccc3)CC2)c1 (stereo partly specified) | 7.6 µM and 7.31 µM
O=C(Nc1cc(Cl)cc([C@H]2Nc3ccc(-c4nn[nH]n4)cc3[C@H]3OCCC[C@@H]23)c1)OCc1ccccc1 | > 99.5 µM
Cc1cc(C(=O)Nc2cccc(CN)c2)c2c(C)n[nH]c2n1 | > 99.5 µM
CN(C)CCc1ccc(NC(=O)c2cc(Cl)cc(NC(=O)OCc3ccccc3)c2)cc1 | 44.5 µM
CNc1nc2cc(-c3ccc4c(c3)C[C@H](N)C4)ccc2o1 | > 99.5 µM
CCOCC1(c2nc3c(C(=O)Nc4ccc5c(c4)CNC5)cc(Cl)cc3[nH]2)CC1 | 0.199 µM
O=S(=O)(c1ccc(Oc2ccccc2Cl)cc1)n1ccc2cc(Cl)ccc21 | > 99.5 µM
NCc1cccc(NC(=O)[C@@H](NC(=O)OCc2ccccc2)c2ccc(OCc3ncccn3)cc2)c1 | 47.9 µM
O=C(O)c1cc(Cl)ccc1S(=O)(=O)NC1CCN(CC2CCOCC2)CC1 | > 99.5 µM
CN(C)C(=O)Nc1cccc([C@@H]2C[C@H]2c2cc(Cl)cc(NC(=O)OCc3ccccc3)c2)c1 | > 99.5 µM
O=C(NCc1ccc2c(c1)CCNC2)c1cc(Cl)cc2[nH]ncc12 | 23.2 µM
CCC1(NC(=O)Cn2ccnc(N3CC[C@@H](CO)C3)c2=O)CC1 | > 99.5 µM
Cc1ccc(C(=O)N[C@H](C(=O)Nc2cccc(CN)c2)c2ccc(OCc3ccccc3)cc2)s1 | 60 µM

SMILES | IC50
CC(C)CNC(=O)[C@H](Nc1cccc(-c2nn[nH]n2)c1)c1cc(Cl)cc(NC(=O)OCc2ccccc2)c1 | 31.1 µM
CCn1ccnc(N2CC[C@H](c3cccc(C#N)c3)C2)c1=O | > 99.5 µM
O=C(Nc1ccc2c(c1)CNC2)c1ccccc1-n1cccc1 | 25.1 µM
O=C(Nc1ccc2c(c1)CNC2)c1n[nH]c2ncc(Br)cc12 | 46.1 µM
CC[C@H](Cc1nnn[nH]1)c1ccc(NC(=O)c2cc(Cl)cc(C#N)c2)cc1 | > 99.5 µM
NCc1cccc(NC(=O)c2c(C(F)F)nc3cnccn23)c1 | > 99.5 µM
O=C(Nc1cc(Cl)cc(-c2ccc3[nH]nc(C(=O)O)c3c2)c1)OCc1ccccc1 | 17.8 µM
CCn1ccnc(N2CC[C@H](C(C)(C)C)C2)c1=O | > 99.5 µM
O=C(Nc1ccc2c(c1)CNC2)c1cc(F)cc(/C=C/c2ccccc2)c1 | 0.165 µM
Cc1ncc(-c2cc(F)cc(C(=O)Nc3ccc4c(c3)CNC4)c2)o1 | 0.152 µM
Cn1ncc2cc(C(=O)N3CCC(NC(=O)[C@]4(C)CCC[C@H]4O)CC3)cc(O)c21 | > 99.5 µM
NCc1cc(Cl)cc(C(=O)Nc2ccc3c(c2)CNC3)c1 | 0.114 µM
O=C(O)c1cc(Cl)c(F)cc1NS(=O)(=O)c1ccc(Oc2ccccc2Cl)cc1 | 10.4 µM
NS(=O)(=O)c1nc(C(=O)N2CCc3c(CO)cccc32)n2ccccc12 | > 99.5 µM
Cc1cnn(-c2cccc(-c3cccc(C4(CN)CC4)c3)c2)c1 | > 99.5 µM
Cc1ccc(NC(=O)c2cc(Cl)cc3[nH]ncc23)cc1CN | 1.39 µM
CN(C)Cc1cccc(C(=O)Nc2cccc(CN)c2)c1 | 23.8 µM
CC(C)Cn1cc2c(C(=O)Nc3ccc4c(c3)CNC4)cc(Cl)cc2n1 | 0.269 µM
C[C@H]1C[C@H](c2cccc(CN)c2)[C@@H](c2cc(Cl)cc(NC(=O)OCc3ccccc3)c2)C1 | 15 µM
c1ccc2c(CNC3CCN(Cc4cscn4)CC3)c[nH]c2c1 | > 99.5 µM
O=C(O)c1cc(Cl)ccc1NS(=O)(=O)c1ccc(-c2cscn2)cc1 | 43.1 µM
COC(=O)[C@H](C)n1cc2c(C(=O)Nc3ccc4c(c3)CNC4)cc(Cl)cc2n1 | 0.199 µM
CCCCNC(=O)[C@H](Nc1ccc2c(c1)CNC2)c1cc(Cl)cc(C2CC2)c1 | 0.057 µM and 0.03 µM
Cn1cc(-c2cccc([C@@H](NC(=O)OCc3ccccc3)C(=O)Nc3cccc(CN)c3)c2)ccc1=O | 73.9 µM
O=C(Nc1ccc2c(c1)CNC2)[C@H]1C[C@@H]1c1ccccc1 | > 25 µM
c1ccc2c(CN3CCN(c4ccncc4)CC3)c[nH]c2c1 | 98 µM

SMILES | IC50
NCc1cccc(NC(=O)c2cc(C3CC3)nc3c(Cl)cnn23)c1 | > 99.5 µM
CC(C)c1ncc(OC2CCC2)c(C(=O)Nc2cccc(CN)c2)n1 | > 99.5 µM
Cc1cnc(Oc2ccc(S(=O)(=O)Nc3ccc(Cl)cc3C(=O)O)cc2)cn1 | > 99.5 µM
O=C(Nc1cc(Cl)cc([C@H](C#CCO)Nc2ccc(-c3nn[nH]n3)cc2)c1)OCc1ccccc1 | 22.7 µM
O=C(N[C@H](C(=O)NCc1ccccc1CO)c1ccc(OCc2ccccc2)cc1)OCc1ccccc1 | > 99.5 µM
NC[C@@H](NC(=O)c1cc(Cl)cc(NC(=O)OCc2ccccc2)c1)c1ccccc1 | > 99.5 µM
Cc1ccc2cc(Cl)cc(C(=O)Nc3ccc4c(c3)CNC4)c2n1 | 0.866 µM
CC[C@H](Cc1nnn[nH]1)c1ccc(NC(=O)c2cc(Cl)cc3[nH]ncc23)cc1 | > 99.5 µM
Clc1cc([C@@H]2C[C@H]2c2cccc(C3CCNCC3)c2)c2cn[nH]c2c1 | 4.53 µM and 7.81 µM
Cc1cc(Cl)c(C)c(C(=O)O)c1NS(=O)(=O)c1ccc(Oc2ccccc2Cl)cc1 | 93.8 µM
CCn1c(=O)c(N2CC[C@H](CO)C2)nc2ccc(C(=O)N(C)C)cc21 | > 99.5 µM
N#Cc1cc(Cl)cc(S(=O)(=O)Nc2cccc(-c3nnn[nH]3)c2)c1 | > 99.5 µM
CCN(CC(=O)NC)C(=O)c1cc(Cl)ccc1NS(=O)(=O)c1ccc(Oc2ccccc2Cl)cc1 | > 99.5 µM
O=C(Nc1ccc2c(c1)CNC2)c1cc(F)cc2[nH]c(-c3cnccc3O)nc12 | 0.13 µM
O=C(Nc1ccc2c(c1)CS(=O)(=O)C2)c1cc(Cl)cc2[nH]ncc12 | > 25 µM
NCc1cccc(NC(=O)c2cc(Cl)ccc2OCC(F)(F)F)c1 | 55.5 µM
CNC(=O)C[C@H](Nc1ccccn1)c1cc(Cl)cc(CN)c1 | > 99.5 µM
CC(C)NC(=O)[C@H](Nc1ccc2c(c1)CNC2)c1cc(F)cc2[nH]ncc12 | 14.4 µM
COc1cc(C(=O)Nc2ccc3c(c2)CNC3)cc2ccoc12 | 0.917 µM
CCn1cc(-c2cccc(OC)c2F)nc(N2CC[C@@H](CO)C2)c1=O | > 99.5 µM
Cn1nc(C(=O)Nc2cc([C@H]3CCOC3)ccn2)cc1C1CC1 | > 25 µM
NC(=O)c1cccnc1N1CCCN(c2nc(-c3cc(Cl)cc(Cl)c3)no2)CC1 | > 99.5 µM
O=C(Nc1cc(Cl)cc(C(=O)Nc2nc3c(s2)CCNC3)c1)OCc1ccccc1 | 53.5 µM
CNC(=O)[C@H](Nc1cccc([C@H]2CCOC2)c1)c1cc(C2CC2)n(C)n1 | > 25 µM
Cc1c(C(=O)Nc2cc(C(N)=O)ccn2)cc(C2CC2)n1C | > 25 µM
NCc1cccc(NC(=O)[C@@H](NC(=O)OCc2ccccc2)c2ccc(-c3ccnc4[nH]ccc34)cc2)c1 | > 99.5 µM

SMILES | IC50
Cc1cc(NC(=O)OCc2ccccc2)cc(C(=O)Nc2cccc(CN)c2)c1 | 10.2 µM
Cc1ncccc1-c1ccc([C@@H](NC(=O)OCc2ccccc2)C(=O)Nc2cccc(CN)c2)cc1 | 98.1 µM
O=C(Nc1ccc2c(c1)CN[C@H]2C[C@H](O)CO)c1cc(F)cc2[nH]ncc12 | 0.077 µM and 0.069 µM
Cc1n[nH]cc1CC(=O)N1CCCC12CCN(C(=O)c1ccnc(CO)c1)CC2 | > 99.5 µM
Cc1c(C(=O)Nc2cc(C(=O)N3CCOCC3)ccn2)cc(C2CC2)n1C | > 25 µM
CO[C@H]1CCCN(C(=O)c2ccnc(NC(=O)c3cc(C4CC4)n(C)c3C)c2)C1 | > 25 µM
CCS(=O)(=O)c1ccc(Cl)cc1[C@H](Nc1ccc2c(c1)CNC2)C(=O)NCC(F)F | 0.875 µM
Cc1occ(C(F)(F)F)c1C(=O)N[C@H](C(=O)Nc1cccc(CN)c1)c1ccc(OCc2ccccc2)cc1 | 61 µM
O=C1CCN(c2cc(Cl)cc(C(=O)Nc3ccc4c(c3)CNC4)c2)C(=O)N1 | 1.23 µM
Cc1ncc(C(=O)Nc2cccc(CN)c2)cc1NC(=O)OCc1ccccc1 | > 99.5 µM
NS(=O)(=O)c1cccc(N2CCN(Cc3c[nH]c4ccccc34)CC2)c1 | > 99.5 µM
Cc1ccc(F)c2c1CCN(Cc1ccn(C3CNC3)c1)C2 | > 99.5 µM
O=C(O)c1cc(Cl)ccc1NS(=O)(=O)c1ccc(Oc2ccccc2Cl)cc1 | 35.1 µM
NCc1cccc(NC(=O)[C@@H](NC(=O)OCc2ccccc2)c2ccc(-c3ccnc(N)c3)cc2)c1 | > 99.5 µM
CCC1CCN(Cc2c[nH]c3ccccc23)CC1 | > 99.5 µM
O=C(O)c1cc(Cl)ccc1S(=O)(=O)Nc1ccc(C(=O)N2CCCCC2)cc1 | > 99.5 µM
CCOC(=O)[C@H]1[C@H](c2cccc(CN)c2)[C@H]1c1cc(Cl)cc(NC(=O)OCc2ccccc2)c1 | 17.2 µM
NCc1ccccc1Oc1ccc(S(=O)(=O)Nc2ccc(Cl)cc2C(=O)O)cc1 | > 99.5 µM
CN(C)[C@H](C(=O)Nc1cccc(CN)c1)c1cc(Cl)cc(Cl)c1 | > 99.5 µM
CNC(=O)C[C@H](Nc1cccc(F)n1)c1cc(Cl)cc(Br)c1 | > 99.5 µM
N[C@H]1Cc2ccc(NC(=O)c3cc(Cl)cc4[nH]ncc34)cc2C1 | 0.488 µM
O=C(Nc1ccc2c(c1)CNC2)c1cc(Cl)cc2nn[nH]c12 | 9.55 µM
NCc1ccc2c(c1)N(C(=O)[C@@H](NC(=O)OCc1ccccc1)c1ccc(OCc3ccccc3)cc1)CC2 | 12.3 µM
